Results on two molecules are retold here after US20110201558A1, “Anaplerotic Therapy for Alzheimer's Disease and the Aging Brain” (Baylor Research Institute, priority 2009, published 2011).

Each structure is given as a SMILES string.

One data set deals with mouse brain. To be noted: infusion of propionyl-CoA precursors; compared with heptanoate, BKP, or propionate; cited from earlier work.
On the set-up of data set [1]: species or system human. The settings on record: in vivo. An excerpt: For example, when using C7 as the source of odd-chain fatty acids these can be provided in the form of a triglyceride, e.g., tri-heptanoin. The triglyceride triheptanoin is provided in a concentration sufficient to provide a beneficial effect is most useful in this aspect of the present invention. The seven-carbon fatty acid may be provided, e.g.:
Goals have been set using 4 g/kg (within ideal body weight (IBW) range) for infants, children, and some adolescents. Goals have been set using 2 g/kg (within IBW range) for adolescents. Goals have been set using 2 g/kg (within IBW range) for adults; but toleration is 1-1.2 g per kg (which is 35% kcal of estimated needs).

Data set [2] concerns patients with inherited disorders of fat and glycogen metabolism as well as pyruvate carboxylase deficiency. To be noted: cited from earlier work.

On to `CCCCC(=O)O` [pentanoate], for which the “anaplerosis (stimulation of the CAC and energy production) in mouse brain” value with mouse brain is reported as “superior”.

Regarding `CCCCCCC(=O)OCC(COC(=O)CCCCCC)OC(=O)CCCCCC` [triheptanoin], the toleration in data set [1] was 1-1.2 g per kg. For the same molecule, in data set [2], the “indirect measures of energy metabolism in the brain and peripheral organs such as muscle and heart” value is “positive effects”.
